We go through eleven molecules from US20120207862A1, “ORAL INHIBITORS OF AGE-RELATED NADH OXIDASE (arNOX), COMPOSITIONS AND NATURAL SOURCES” (priority 2010, published 2012).

Where “and” joins values, the source holds several entries; their conditions need not be identical. Identical values can stand only once. Entries after “also recorded” stand apart in the source; their conditions may differ. Like-named read-outs stand apart in the source and are kept apart here.

Series [1] concerns arNOX. As to the kind of experiment: arNOX inhibition assay (superoxide-dependent reduction of ferric cytochrome c). The series is classed as biochemical, human. On the procedure:
Reduction of ferric cytochrome c by superoxide was employed as a standard measure of superoxide formation (Mayo, L. A. and Curnutte, J., 1990, Meth. Enzyme. 186:567-575; Butler, J. et al., 1982, J. Biol. Chem. 257:10747-10750). This is a widely accepted method when coupled to superoxide dismutase inhibition for the measurement of superoxide generation. The assay consists of 150 μl buffy coats in PBSG buffer (8.06 g NaCl, 0.2 g KCl, 0.18 g Na2HPO4, 0.13 g CaCl2, 0.1. g MgCl2, 1.35 g glucose dissolved in 1000 ml deionized water, adjusted to pH 7.4, filtered and stored at 4° C.). Rates were determined using an SLM Aminco DW-2000 spectrophotometer (Milton Roy, Rochester, N.Y., USA) in the dual wave length mode of operation with continuous measurements over 1 min every 1.5 min. After 45 min, test compounds were added and the reaction was continued for an additional 45 min. After 45 min, a millimolar extinction coefficient of 19.1 cm^−1 was used for reduced ferricytochrome c. Extracts were made of the potentially inhibitory compounds in water unless otherwise indicated.
Infusions are prepared by adding 125 mg material (for herbs or spices, dry weight) to 1 ml boiling water. The solutions are allowed to cool slowly and steep at room temperature overnight. Pure compounds (gallic acid, apigenin, derivatives of benzoic acid) are prepared as 100 mM stock solutions in water, ethanol or DMSO, depending on solubility in a particular liquid.
Tinctures are prepared by adding […] of material (fresh weight) to 1 ml ethanol and allowed to steep overnight (or from about 3-30 hours, about 6-24, or about 12-20 or about 18 hours). Insoluble and particulate material is allowed to sediment, and the soluble material is decanted. Tinctures, infusions and stock solutions of pure compounds are tested undiluted, diluted 1:10, 1:100 and 1:1000 to determine EC50 (the dose which causes 50% inhibition of arNOX activity). For tinctures or infusions, aliquots of 60 μl are added to 2.5 ml arNOX assay. For stock solutions (undiluted or diluted), aliquots of 2.5 μl are added to 2.5 ml arNOX assay. For example, addition of an undiluted 100 mM stock solution results in a final concentration of 100 μM in the assay.

The subject of series [2] is T1, arNOX.
T1 construct: other: infusion; human saliva
The series is described as above. The conditions noted are these: read-out: EC50 (dose which causes 50% inhibition of arNOX activity). The format is biochemical, human.

Series [3] concerns arNOX. The conditions noted are these: Morré et al., 2008, BioFactors 32:231-235; cited from earlier work.
The next series in a line: Solubility in water. The series is classed as physicochemical.
A further series relates to salivary arNOX. The series can be described thus: Kinetics of salivary arNOX inhibition after oral administration to a volunteer. The series is classed as in vivo, human. The conditions noted are these: single oral dose at time 0 h, subject. On the procedure: To determine the kinetics of arNOX inhibition, capsules containing 350 to 700 mg of selected seasonings and active ingredients were administered orally to a volunteer and the arNOX activity of collected saliva was analyzed serially. arNOX activity of saliva and sera correlate closely (FIG. 14) such that salivary arNOX is reflective of the inhibition of serum arNOX.

In general, EC50 refers to the concentration that produces a half-maximal response. `Cc1cc(C)cc(C(=O)O)c1` [3,5-dimethylbenzoic acid]: the “arNOX inhibition (in words)” value with arNOX [1] is reported as “most inhibitory”. In addition, the EC50 in the series on arNOX [2] stood at 0.2 µM.
Turning to `COC1=C(OC)C(=O)C(C/C=C(\C)CC/C=C(\C)CC/C=C(\C)CC/C=C(\C)CC/C=C(\C)CC/C=C(\C)CC/C=C(\C)CCC=C(C)C)=C(C)C1=O` [CoQ8], the “inhibition of arNOX activity of aging cells” value (shortened to “inhibition … of aging cells”) with arNOX [3] is listed as “inhibited”.
For the molecule `COC1=C(OC)C(=O)C(C/C=C(\C)CC/C=C(\C)CC/C=C(\C)CC/C=C(\C)CC/C=C(\C)CC/C=C(\C)CC/C=C(\C)CC/C=C(\C)CCC=C(C)C)=C(C)C1=O` [CoQ9], in the series on arNOX [3], the “inhibition … of aging cells” value was “inhibited”.
Consider `COC1=C(OC)C(=O)C(C/C=C(\C)CC/C=C(\C)CC/C=C(\C)CC/C=C(\C)CC/C=C(\C)CC/C=C(\C)CC/C=C(\C)CC/C=C(\C)CC/C=C(\C)CCC=C(C)C)=C(C)C1=O` [CoQ10], for which, in the series on arNOX [3], the “inhibition … of aging cells” value is “inhibited”.
Take `Oc1ncnc2[nH]ncc12` [allopuranol, reference compound]: the “arNOX inhibition (in words)” value in the series with arNOX [1] is “inhibited arNOX to varying degrees”.
Consider `O=c1cc(-c2ccc(O)cc2)oc2cc(O)cc(O)c12` [apigenin aglycone, apigenin], for which, in the series with arNOX [1] (10 μM, supplied as DMSO solution), the “inhibition of arNOX activity at 10 μM” value is on record as “inhibited arNOX activity”. Further, the water solubility entry is “insoluble in water” in the series “Solubility in water” and “low water solubility” in “Solubility in water” (listed as apigenin).
Take `O=C(O)c1cc(O)c(O)c(O)c1` [gallic acid, 3,4,5-trihydroxybenzoic acid]: in the series with arNOX [1], the “arNOX inhibition (in words)” value is listed as “active”; the effective final concentration was 0.14 μM and 10 ng/mL. Moreover, in the series on salivary arNOX, the “maximum inhibition of salivary arNOX” value is reported as 84% and the “time of maximum inhibition of salivary arNOX” value worked out at 8 h.
`O[C@H]1[C@H](O)[C@@H](O)[C@H](O)[C@@H](O)[C@H]1O` [inositol]: in the series with arNOX [1], the “arNOX inhibition (in words)” value was “inhibited arNOX to varying degrees”.
On to `O=P(O)(O)O[C@H]1[C@H](OP(=O)(O)O)[C@@H](OP(=O)(O)O)[C@H](OP(=O)(O)O)[C@@H](OP(=O)(O)O)[C@H]1OP(=O)(O)O` [phytic acid], for which the “arNOX inhibition (in words)” value with arNOX [1] was “inhibited arNOX to varying degrees”.
For the molecule `OCc1ccccc1O[C@@H]1O[C@H](CO)[C@@H](O)[C@H](O)[C@H]1O` [salicin, reference compound], the “arNOX inhibition (in words)” value in the series on arNOX [1] is “inhibited arNOX to varying degrees”. Also, the “type of arNOX inhibition from kinetic data” value in the series on arNOX [1] (FIG. 1) was “competitive inhibitor”.
Take (±)-catechin: in the series on arNOX [1], the “arNOX inhibition (in words)” value is reported as “inhibits arNOX; also recorded: potent arNOX inhibitor”; the effective final concentration is 100 μM and 300 ng/mL.
